Source: patent US7589168B2 (Roskamp Research LLC, priority 2001, dated 2009)
Entries after “also recorded” stand apart in the source; their conditions may differ. Ends that are not written are not given here.

Experiments:
[1] = tested on: A-549 (human lung adenocarcinoma); experiment: Nude mouse tumor xenograft model, A-549; format: in vivo, nude mice; conditions: for tumor growth (tumor volume): vs vehicle control; for tumor vascularization (mean microvessel count per tumor): vs control tumors, 50 mg/kg/day
Method: (§1) Nude mouse tumor xenograft model. […] The tumor volumes were determined by measuring length (l) and width (w) and calculating volume (V=lw^2/2). On the termination day of each in vivo antitumor study, tumors were extracted and fixed in 10% neutral buffered formalin for 6 h. Formalin-fixed paraffin sections were cut at 3 microns and dried overnight at room temperature. Sections were immunostained with rat anti-mouse CD31 ([sequence], San Diego, Calif.) using the avidin peroxidase complex technique as previously described (Blaskovich M. A., et al. Nat. Biotechnol. 18, 1065-1070 (2000)). Briefly, sections were digested with protease XXIV (1 mg/ml in PBS, pH 7.6) for 7 minutes. Endogenous peroxidase was blocked with 3% hydrogen peroxide and non-specific background staining reduced by a 10 min incubation with normal rabbit serum. Sections were incubated for 30 min with rat anti-mouse CD31 at 1:50, for 15 min with biotinylated anti-rat IgG and for 15 min with ABC complex (VECTOR KIT, Burlingame, Calif). NOVARED was used as the chromogen. Slides were counterstained with modified Mayer's hematoxylin using standard histological techniques. For microvessel counting, the five areas of highest tumor neovascularization were microscopically selected using a low-power view. After the areas of highest neovascularization had been identified, individual microvessels were counted on a 400×(40× objective lens and 10× ocular lens) field. Brown-staining endothelial cells or endothelial cell clusters were considered as a single, countable microvessel as previously described (Weidner N. et al. N. Engl. J. Med. 324, 1-8 (1991)). Data from at least forty 400× fields of each tumor type are reported by mean values±SE. Results are expressed as the % of microvessel count standardized against the microvessel count in the control tumors (vehicle only).

[2] = tested on: bFGF-induced angiogenesis in MATRIGEL plugs; experiment: In vivo […] plug assay (bFGF-induced angiogenesis); set-up: species or system mice
[3] = tested on: chick chorionic allantoid membrane (CAM); experiment: Chick chorionic allantoid membrane (CAM) model of angiogenesis; format: in vivo; conditions: dose range 1 microgram to 250 micrograms, 48 hours
Method: After 48 hours of incubation, CAMs were perfused with colloidal carbon, fixed and photographed.

[4] = tested on: human middle cerebral artery rings; experiment: Human middle cerebral artery ring angiogenesis assay; format: cell-based; conditions: for microvessel outgrowths: day 9, vs control
[5] = tested on: neovascularization stimulated by bFGF in the rat cornea; experiment: Rat corneal model of angiogenesis (bFGF hydron pellets); format: in vivo
Excerpt: Representative flat-mount photomicrographs of rat corneas (original magnification ×100) 7 days after implantation of hydron pellets. […] Angiogenesis indexes are expressed as mean±SE.

[6] = tested on: rat aortic rings; experiment: Ex vivo rat aortic ring angiogenesis assay; format: cell-based, Sprague Dawley rats
[7] = tested on: cow middle cerebral artery rings; experiment: Cow middle cerebral artery ring angiogenesis assay; format: cell-based; conditions: COX-2 inhibition by NS-398; data not shown
[8] = tested on: U87-MG (human glioblastoma); experiment: Nude mouse tumor xenograft model, U87-MG; format: in vivo, nude mice
Method: as §1

[9] = tested on: endothelial cells; experiment: Toxicity (apoptosis, necrosis) of Aβ in the capillary network assay; format: cell-based, human; conditions: soluble or aggregated Aβ; data not shown
Method: Although endothelial cells continue to proliferate and form a cobblestone monolayer when plated on untreated tissue culture dishes, culturing on dishes coated with reconstituted basement membrane induces endothelial cells to become quiescent and adopt a three-dimensional capillary-like morphology. Therefore, the effect of Aβ on the capillary-like network formation on […] by endothelial cells isolated from human middle cerebral artery was assessed. […] The potential toxicity of Aβ was investigated in this assay and it was observed that under these culture conditions no apoptosis (as measured by ELISA determining the quantity of cytoplasmic oligonucleosomes) or necrosis (estimated by the release of LDH in the culture medium) of endothelial cells was induced by either soluble or aggregated Aβ (data not shown).

[10] = tested on: B16F1 melanoma cells; experiment: Growth of subcutaneous B16F1 melanoma tumors; format: in vivo, C57B16/J mice; conditions: cells injected s.c. in medium containing 10 μM freshly dissolved Aβ1-40; 14 days after implantation
Method: Subcutaneous Implantation of B16 Melanoma Cells. C57B16/J mice were purchased from Jackson laboratories at 8 weeks of age. The B16 F1 murine melanoma cell line was purchased from ATCC. Cells were grown in DMEM medium supplemented with 10% fetal calf serum and 1× mixture of antibiotics-fungicide (BIOWHITEKER). […] 100 μl of cell suspension were injected subcutaneously in mice. Fourteen days after the implantation of the cells, mice were euthanized and the tumors dissected and weighted.

[11] = tested on: human brain endothelial cells; experiment: Endothelial cell migration assay (modified Boyden chamber, […] invasion chamber); format: cell-based; conditions: 20 hours, vs untreated cells
Method: Endothelial Cell Migration Assay. Migration of human brain adult endothelial cells was evaluated using a modified Boyden chamber assay (BD BioCoat [sequence] Invasion Chamber), as described (Soker et al. 1998; Nakamura et al. 1997). The cells were plated at 4.10^4/ml onto an 8 μm pore size membrane coated with a thin layer of [sequence] basement membrane matrix. Freshly solubilized Aβ (1 μM and 5 μM) was added to the medium in the outer cup and the cells were cultured for 20 hours. Non-invading cells were removed from the upper surface by using a cotton swab. Membrane inserts were then fixed with 4% paraformaldehyde and stained with the DEAD-RED dye (MOLECULAR PROBE). Cells were observed using a fluorescent microscope. The number of cells, which migrated to the undersurface of the filter, was quantified by counting the cells in randomly selected 3 microscopic fields (10×). Experiments were done in triplicate.

[12] = 50 mg/kg/day/tumor intratumorally

Question: “VIGKYHGMSNLVGRSFEVHQGKGAEVDAHGLFDIEAFVDV [scrambled Aβ, having the same amino acids as Aβ1-40 peptide, but in random order]” was tested. Which “tumor growth (tumor volume)” value [1, 12] did it give?
Answer: The value was “did not affect the growth of human lung tumors; also recorded: no difference”.

Question: And the “tumor vascularization (mean microvessel count per tumor)” value [1, 12]?
Answer: The value was “no significant difference”.

Question: And the “tumor vascularization (mean microvessel count per tumor)” value ([1]; 50 mg/kg/day/tumor intratumorally, listed as Aβ scrambled)?
Answer: Its value is “did not impede tumor vascularization”.

Question: And the “endothelial cell invasion and vessel formation (PECAM-1 immunostaining)” value ([2]; 50 mg/kg/day intraperitoneal, 6 days)?
Answer: Its value is “presence of endothelial cells forming vessels”.

Question: And the “vascular response vs control conditions” value [3]?
Answer: Its value is “no difference in vascular response”.

Question: What about the microvessel outgrowths ([4]; 1 μM, listed as scramble Aβ1-40) of the same compound?
Answer: Its microvessel outgrowths is “absence of pro-angiogenic activity; also recorded: not altered”.

Question: And the microvessel outgrowths ([4]; 5 μM)?
Answer: The microvessel outgrowths was “not altered”.

Question: What about the formation of outgrowths ([4]; scramble peptide, dose not given, 9 days) of the same compound?
Answer: The formation of outgrowths was “unable to affect the formation of outgrowths”.

Question: And the “neovascularization stimulated by bFGF” value ([5]; after 7 days, hydron pellets)?
Answer: Its value is “displayed no effect”.

Question: And the “angiogenesis index vs control (bFGF alone)” value ([5]; dose not stated, 7 days)?
Answer: The value was “no significant difference”.

Question: Which results are given for `CS(=O)(=O)Nc1ccc([N+](=O)[O-])cc1OC1CCCCC1` [NS-398]?
Answer: microvessel outgrowths ([6]; 20 μM, day 5, vs control): displays anti-angiogenic activity; also recorded: effectively inhibited outgrowths; effect on stimulation of microvessel outgrowths by 1 μM Aβ1-40 ([6]; NS-398 + 1 μM Aβ1-40, day 5): able to oppose the pro-angiogenic effect of 1 μM Aβ1-40; also recorded: also inhibited; microvessel outgrowths [7]: partial inhibition of microvessel outgrowths; microvessel outgrowths ([4]; NS-398 (20 μM)): partially inhibited the microvessel outgrowths; also recorded: anti-angiogenic effect

Question: With “Aβ: Aβ peptide as worded in the examples; methods and legends indicate Aβ1-40 (toxicity test: soluble or aggregated Aβ1-40 and Aβ1-42)” as the compound, how does the “tumor growth (tumor volume)” value [1, 12] read?
Answer: Its value is “suppression of tumor growth”.

Question: And the “reduction of tumor microvessel densities” value ([1]; CD31 and factor VIII immunostaining, 50 mg/kg/day/tumor intratumorally)?
Answer: Its value is “approximately 60%”.

Question: And the tumor growth ([1]; with 10 μM of Aβ peptide)?
Answer: Its tumor growth is “complete inhibition of tumor growth”.

Question: What about the “total cellular invasion in MATRIGEL plugs” value ([2]; 50 mg/kg/day, Aβ vs scrambled Aβ group, t-test) of the same compound?
Answer: Its value is “significant difference”.

Question: What about the “angiogenesis in the MATRIGEL plug model” value ([2]; with 2 μM of Aβ peptide) of the same compound?
Answer: The value was “inhibition of angiogenesis”.

Question: And the “tumor growth (tumor volume)” value ([8]; 50 mg/kg/day/tumor intratumorally, vs vehicle control)?
Answer: Its value is “suppression of tumor growth”.

Question: What about the “reduction of microvessel densities” value ([8]; CD31 immunostaining, 50 mg/kg/day/tumor intratumorally) of the same compound?
Answer: The value was “approximately 50%”.

Question: And the tumor growth ([8]; with 10 μM of Aβ peptide)?
Answer: Its tumor growth is “complete inhibition of tumor growth”.

Question: What about the “apoptosis of endothelial cells (ELISA, cytoplasmic oligonucleosomes)” value [9] of the same compound?
Answer: Its value is “no apoptosis”.

Question: What about the “necrosis of endothelial cells (release of LDH in the culture medium)” value [9] of the same compound?
Answer: Its value is “no”.

Question: What about the “development of tumors (tumor weight)” value [10] of the same compound?
Answer: Its value is “significantly reduce the development of tumors”.

Question: What about the endothelial cell migration ([11]; 1 μM freshly solubilized) of the same compound?
Answer: Its endothelial cell migration is “stimulated endothelial cell migration”.

Question: And the endothelial cell migration ([11]; 5 μM freshly solubilized)?
Answer: The endothelial cell migration was “significantly suppressed endothelial cells migration”.
